In ChEMBL document CHEMBL1177740, “Steroidal saponins from two species of Dracaena” (J Nat Prod, 2010):

Experiments:
HCT-116 = assay: Cytotoxicity against human HCT116 cells by MTT assay; assay type: functional, cell-based
HT-29 = assay: Cytotoxicity against human HT-29 cells by MTT assay; assay type: functional, cell-based

Compound | IC50 (HCT-116) [µM] | IC50 (HT-29) [µM]
C[C@@H]1CC[C@@]2(OC1)O[C@H]1C[C@H]3[C@@H]4CC=C5C[C@@H](O[C@@H]6O[C@H](CO)[C@@H](O)[C@H](O[C@@H]7O[C@@H](C)[C@H](O)[C@@H](O)[C@H]7O)[C@H]6O)CC[C@]5(C)[C@H]4CC[C@]3(C)[C@@]1(O)[C@@H]2C [MANIOSIDE A] | 43 | 56.2
C=C1CO[C@@]2(O[C@H]3C[C@H]4[C@@H]5CC=C6C[C@@H](O)C[C@@H](O[C@@H]7OC[C@H](O)[C@H](O[C@@H]8OC[C@@H](O)[C@H](O)[C@H]8O[C@@H]8O[C@@H](C)[C@H](O)[C@@H](O)[C@H]8O)[C@H]7O)[C@]6(C)[C@H]5CC[C@]4(C)[C@H]3[C@@H]2C)[C@@H](O)[C@H]1O[C@@H]1OC[C@H](O)[C@H](O)[C@H]1O | 29 | 29.5
CC(=O)O[C@H]1C(=O)[C@@]2(C)[C@H]([C@H](OC(=O)c3ccccc3)[C@]3(O)C[C@H](OC(=O)[C@H](O)[C@@H](NC(=O)c4ccccc4)c4ccccc4)C(C)=C1C3(C)C)[C@]1(OC(C)=O)CO[C@@H]1C[C@@H]2O [PACLITAXEL] | 0.00321 | 0.0014
C[C@@H]1CC[C@]2(OC1)O[C@H]1C[C@H]3[C@@H]4CC=C5C[C@@H](O[C@@H]6O[C@H](CO)[C@@H](O)[C@H](O[C@@H]7O[C@@H](C)[C@H](O)[C@@H](O)[C@H]7O)[C@H]6O[C@@H]6O[C@@H](C)[C@H](O)[C@@H](O)[C@H]6O)CC[C@]5(C)[C@H]4CC[C@]3(C)[C@@]1(O)[C@@H]2C | 2.04 | 1.67
C[C@@H]1O[C@@H](O[C@H]2[C@H](O[C@H]3CC[C@@]4(C)C(=CC[C@@H]5[C@@H]4CC[C@@]4(C)[C@H]5C[C@@H]5O[C@@]6(C[C@@H](O)[C@@H](C)CO6)[C@@H](C)[C@@]54O)C3)O[C@H](CO)[C@@H](O)[C@@H]2O[C@@H]2O[C@@H](C)[C@H](O)[C@@H](O)[C@H]2O)[C@H](O)[C@H](O)[C@H]1O [ARBOREASAPONIN B] | 100 | 100
C=C1CO[C@]2(O[C@H]3C[C@H]4[C@@H]5CC=C6C[C@@H](O)C[C@@H](O[C@@H]7O[C@H](C)[C@H](O)[C@H](O[C@@H]8O[C@@H](C)[C@H](O)[C@@H](O)[C@H]8O)[C@H]7O[C@@H]7OC[C@@H](O)[C@H](O)[C@H]7O)[C@]6(C)[C@H]5CC[C@]4(C)[C@H]3[C@@H]2C)[C@@H](O)[C@H]1O[C@@H]1OC[C@H](O)[C@H](O)[C@H]1O [DEISTELIANOSIDE B] | 21.2 | 70.7
CC(=O)OC[C@H]1O[C@@H](O[C@H]2CC[C@@]3(C)C(=CC[C@@H]4[C@@H]3CC[C@@]3(C)[C@H]4C[C@@H]4O[C@@]5(CC[C@@H](C)CO5)[C@@H](C)[C@@]43O)C2)[C@H](O[C@@H]2O[C@@H](C)[C@H](O)[C@@H](O)[C@H]2O)[C@@H](O[C@@H]2O[C@@H](C)[C@H](O)[C@@H](O)[C@H]2O)[C@@H]1O [ARBOREASAPONIN A] | 7.6 | 8.54
